Measurements reported in US20080113944A1, “Novel Indole Derivatives” (Novo Nordisk A/S, priority 2004, published 2008).

melting point | SMILES
184 to 185 °C | CS(=O)(=O)C(C#N)=Cc1ccc2[nH]ccc2c1 [Example 3, 3-(1 H-indol-5-yl)-2-methanesulfonylacrylonitrile]
219 to 221 °C | N#CC(=Cc1ccc2[nH]ccc2c1)S(=O)(=O)c1ccc([N+](=O)[O-])cc1 [Example 2, 3-(1H-indol-5-yl)-2-(4-nitrobenzenesulfonyl)acrylonitrile]
